{
  "source": "patent US20100184685A1",
  "about": "(priority 2009, published 2010)",
  "key": {"post-operative pain [1]": {"test_system": "post-operative pain", "conditions": "in vivo"}, "post-operative pain [2]": {"test_system": "post-operative pain", "design": "species or system human", "conditions": "in vivo"}},
  "note": "Values joined by “and” are separate entries in the source; they are usually repeats but may differ in a detail not shown here. Equal entries are not always repeated.",
  "data": [
    {"smiles": "CCCCN1CCCCC1C(=O)Nc1c(C)cccc1C", "note": "(stereo not shown) [Marcaine]", "values": [
      {"measurement": "pain on the visual analog pain scale", "setting": "post-operative pain [1]", "result": "3-4 /10"},
      {"measurement": "requirement for patient controlled analgesic (PCA) administration during hospitalization", "setting": "post-operative pain [1]", "result": "did not require any patient controlled analgesic (PCA) administration"},
      {"measurement": "signs of infection at the previous infusion catheter sites", "setting": "post-operative pain [1]", "result": "without signs of infection"},
      {"measurement": "pain level on the visual analog pain scale", "setting": "post-operative pain [2]", "result": "5-6 /10 and 4 /10"}
    ]}
  ]
}
